Key:
[1] = target: T1, K-Ras G12D (Homo sapiens, UniProt P01116, G12D); experiment: PPI-HTRF assay, K-Ras G12D / SOS1 interaction; type: biochemical; settings: HTRF, K-Ras G12D; read-out: PPI-HTRF-5 nM (K-Ras G12D IC50)
T1 construct: made in house; host or cells: E. coli, e.g. BL21 (DE3)
Method in brief: (§1)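 HTRF readout: 665/620 nm ratio (ex 337 nm) after ≥10 min incubation. Donor anti-GST-Eu(K) sits on GST-K-Ras (WT, G12D, G12V or G12S) and acceptor anti-6His-XL665 on His-hSOS1. Buffer ~5 mM HEPES pH 7.4, ~150 mM NaCl, ~1 mM DTT, 0.05% BSA, 0.0025% Igepal. Duplicate 6-point dilution, 10–0.01 μM, fitted to IC50.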

[2] = target: T2, K-Ras G12S (Homo sapiens, UniProt P01116, G12S); experiment: PPI-HTRF assay, K-Ras G12S / SOS1 interaction; type: biochemical; settings: read-out: PPI-HTRF-5 nM (K-Ras G12S IC50)
T2 construct: made in house; host or cells: E. coli, e.g. BL21 (DE3)
Method in brief: as §1

[3] = target: T3, K-Ras G12V (Homo sapiens, UniProt P01116, G12V); experiment: PPI-HTRF assay, K-Ras G12V / SOS1 interaction; type: biochemical; settings: HTRF, K-Ras G12V; read-out: PPI-HTRF-5 nM (K-Ras G12V IC50)
T3 construct: made in house; host or cells: E. coli, e.g. BL21 (DE3)
Method in brief: as §1

[4] = target: T4, wildtype K-Ras (Homo sapiens, UniProt P01116); experiment: PPI-HTRF assay, wildtype K-Ras / SOS1 interaction; type: biochemical; settings: HTRF, K-Ras wt; read-out: PPI-HTRF-5 nM (K-Ras wt IC50)
T4 construct: made in house; host or cells: E. coli, e.g. BL21 (DE3)
Method in brief: as §1

[5] = test system: GP2D cells; experiment: Ras cellular assay, cell proliferation GP2D; type: cell-based
Method in brief: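 Growth inhibition read by CellTiter-Glo luminescence roughly 5 days after compound addition, which followed overnight plating of G12D-mutant GP2D cells (e.g., 800 per well). Compounds were tested as a serial dilution (e.g., 9 points, 3-fold), with IC50 fitted by four-parameter model.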

[6] = test system: A549 cells; experiment: Ras cellular assay, cell proliferation A549; type: cell-based; settings: Homo sapiens
Method in brief: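 G12S-mutant A549 cells (800/well) in RPMI-1640 plus 10% heat-inactivated FBS, standard or ultra-low attachment 384-well plates, dosed the day after plating with a 10-point 3-fold series. Viability by CellTiter-Glo luminescence about 6 days later; IC50 from four-parameter fit.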

[7] = test system: SW620 cells; experiment: Ras cellular assay, cell proliferation SW620; type: cell-based; settings: Homo sapiens, SW-620
Excerpt: For example, this assay can be also used to assess selective growth inhibition of a mutant Ras protein relative to a wildtype, or relative to a different mutant Ras protein.

T1 sequence (P01116 1-188 isoform P01116-2 G12D): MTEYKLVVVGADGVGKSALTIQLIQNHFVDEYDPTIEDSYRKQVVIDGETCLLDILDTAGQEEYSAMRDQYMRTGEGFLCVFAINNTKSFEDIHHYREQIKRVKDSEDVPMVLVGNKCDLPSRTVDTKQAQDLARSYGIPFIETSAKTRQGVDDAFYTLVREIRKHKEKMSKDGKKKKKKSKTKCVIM
T2 sequence (P01116 1-188 isoform P01116-2 G12S): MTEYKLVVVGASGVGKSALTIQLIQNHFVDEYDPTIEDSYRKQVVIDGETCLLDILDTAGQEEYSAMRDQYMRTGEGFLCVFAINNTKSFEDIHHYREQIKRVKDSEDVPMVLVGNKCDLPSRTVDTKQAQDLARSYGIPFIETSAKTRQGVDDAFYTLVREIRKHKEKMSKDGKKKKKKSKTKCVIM
T3 sequence (P01116 1-188 isoform P01116-2 G12V): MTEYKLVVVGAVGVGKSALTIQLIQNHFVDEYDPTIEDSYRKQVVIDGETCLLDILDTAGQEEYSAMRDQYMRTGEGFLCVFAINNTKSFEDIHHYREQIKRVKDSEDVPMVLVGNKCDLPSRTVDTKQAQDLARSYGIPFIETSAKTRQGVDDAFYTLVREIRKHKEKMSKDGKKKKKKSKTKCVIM
T4 sequence (P01116 1-188 isoform P01116-2): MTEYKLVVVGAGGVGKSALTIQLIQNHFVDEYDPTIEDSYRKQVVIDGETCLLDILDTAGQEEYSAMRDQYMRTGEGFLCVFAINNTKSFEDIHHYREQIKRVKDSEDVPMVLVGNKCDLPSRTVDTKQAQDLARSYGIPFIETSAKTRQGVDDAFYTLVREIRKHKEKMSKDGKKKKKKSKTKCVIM

SMILES: N#Cc1c(N)sc2c(F)ccc(-c3c(Cl)c4c5c(nc(OC[C@@]67CCCN6C[C@H](F)C7)nc5c3F)N3CCCNCC3CO4)c12 (stereo partly drawn) [compound 151, 2-amino-4-(12-chloro-10-fluoro-8-(((2R,7aS)-2-fluorotetrahydro-1H-pyrrolizin-7a(5H)-yl)methoxy)-2,3,4,5,14,14a-hexahydro-1H-[1,4]diazepino[2′,1′:3,4][1,4]oxazepino [5,6,7-de]quinazolin-11-yl)-7-fluorobenzo[b]thiophene-3-carbonitrile]
- IC50 [1]: < 5 µM
- IC50 [2]: < 5 µM
- IC50 [3]: < 5 µM
- IC50 [4]: < 5 µM
- IC50 [5]: < 5 µM
- IC50 [6]: < 5 µM
- IC50 [7]: < 5 µM

SMILES: N#Cc1c(N)sc2c(F)ccc(-c3c(Cl)c4c5c(nc(OC[C@@]67CCCN6C[C@H](F)C7)nc5c3F)N(CCC3CNC3)C3COCC3CO4)c12 (stereo partly drawn) [compound 171, 2-amino-4-(12-(2-(azetidin-3-yl)ethyl)-6-chloro-4-fluoro-2-(((2R,7aS)-2-fluorotetrahydro-1H-pyrrolizin-7a(5H)-yl)methoxy)-8a,9,11a,12-tetrahydro-8H,11H-furo[3′,4′:6,7][1,5]oxazocino[4,3,2-de]quinazolin-5-yl)-7-fluorobenzo[b]thiophene-3-carbonitrile]
- IC50 [1]: < 5 µM
- IC50 [2]: < 5 µM
- IC50 [3]: < 5 µM
- IC50 [4]: < 5 µM
- IC50 [5]: < 5 µM
- IC50 [6]: > 5 µM
- IC50 [7]: > 5 µM

SMILES: CN1c2nc(OC[C@@]34CCCN3C[C@H](F)C4)nc3c(F)c(-c4ccc(F)c5sc(N)c(C#N)c45)c(Cl)c(c23)OCC2CNCC21 (stereo partly drawn) [compound 140, 2-amino-4-(6-chloro-4-fluoro-2-(((2R,7aS)-2-fluorotetrahydro-1H-pyrrolizin-7a(5H)-yl)methoxy)-12-methyl-8a,9,10,11,11a,12-hexahydro-8H-pyrrolo[3′,4′:6,7][1,5]oxazocino[4,3,2-de]quinazolin-5-yl)-7-fluorobenzo[b]thiophene-3-carbonitrile]
- IC50 [1]: < 5 µM
- IC50 [2]: < 5 µM
- IC50 [3]: < 5 µM
- IC50 [4]: < 5 µM
- IC50 [5]: < 5 µM
- IC50 [6]: < 5 µM
- IC50 [7]: < 5 µM

SMILES: N#Cc1c(N)sc2c(F)ccc(-c3c(Cl)c4c5c(nc(OC[C@@]67CCCN6C[C@H](F)C7)nc5c3F)N3CCC[C@H]3CCO4)c12 [compound 115, 2-amino-4-((13aS)-10-chloro-8-fluoro-6-(((2R,7aS)-2-fluorotetrahydro-1H-pyrrolizin-7a(5H)-yl)methoxy)-1,2,3,12,13,13a-hexahydropyrrolo[1′,2′:5,6][1,5]oxazocino [4,3,2-de]quinazolin-9-yl)-7-fluorobenzo[b]thiophene-3-carbonitrile]
- IC50 [1]: < 5 µM
- IC50 [2]: < 5 µM
- IC50 [3]: < 5 µM
- IC50 [4]: < 5 µM
- IC50 [5]: < 5 µM
- IC50 [6]: < 5 µM
- IC50 [7]: < 5 µM

SMILES: N#Cc1c(N)sc2c(F)ccc(-c3c(Cl)c4c5c(nc(OC[C@@]67CCCN6C[C@H](F)C7)nc5c3F)N3CCCC3CO4)c12 (stereo partly drawn) [compound 137, 2-amino-4-(6-chloro-4-fluoro-2-(((2R,7aS)-2-fluorotetrahydro-1H-pyrrolizin-7a(5H)-yl)methoxy)-8a,9,10,11-tetrahydro-8H-pyrrolo[2′,1′:3,4][1,4]oxazepino[5,6,7-de]quinazolin-5-yl)-7-fluorobenzo[b]thiophene-3-carbonitrile]
- IC50 [1]: < 5 µM
- IC50 [2]: < 5 µM
- IC50 [3]: < 5 µM
- IC50 [4]: < 5 µM
- IC50 [5]: < 5 µM
- IC50 [6]: < 5 µM
- IC50 [7]: < 5 µM

SMILES: N#Cc1c(N)sc2c(F)ccc(-c3c(Cl)c4c5c(nc(OC[C@@]67CCCN6C[C@H](F)C7)nc5c3F)N3Cc5ccnn5CCC3CCO4)c12 (single isomer, unassigned) [compound 153]
- IC50 [1]: < 5 µM
- IC50 [2]: < 5 µM
- IC50 [3]: < 5 µM
- IC50 [4]: < 5 µM
- IC50 [5]: < 5 µM
- IC50 [6]: < 5 µM
- IC50 [7]: < 5 µM

Source: patent US12059425B2, “Heterocyclic compounds and uses thereof” (Kumquat Biosciences Inc., priority 2022, dated 2024)
